Test results as given in patent US10202356B2, “JAK2 and ALK2 inhibitors and methods for their use” (Tolero Pharmaceuticals, Inc., priority 2013, dated 2019).
Read-outs that look alike come from different tables or passages of the source. Values belong to the compound of their own block, whether it stands above or below them.

Experiments:
JAK2 kinase = biological target: T1, JAK2 kinase (Homo sapiens, UniProt O60674); assay: JAK2 kinase assay, Z'-LYTE technology; format: biochemical
T1 construct: purchased Life Technologies (Drug Discovery and Development Services, Madison, Wis.)
Method: (§1) Biochemical assays to measure the inhibitory effects of the compounds were performed by the Drug Discovery and Development Services at Life Technologies (Madison, Wis.). JAK2 kinase assays were performed using Z′-LYTE® technology, while ALK2 inhibition was tested using a LanthaScreen® binding assay.

ALK2 = biological target: T2, ALK2 (Homo sapiens, UniProt Q04771); assay: ALK2 inhibition, LanthaScreen binding assay
T2 construct: purchased Life Technologies (Drug Discovery and Development Services, Madison, Wis.)
T2 sequence (Q04771 21-509): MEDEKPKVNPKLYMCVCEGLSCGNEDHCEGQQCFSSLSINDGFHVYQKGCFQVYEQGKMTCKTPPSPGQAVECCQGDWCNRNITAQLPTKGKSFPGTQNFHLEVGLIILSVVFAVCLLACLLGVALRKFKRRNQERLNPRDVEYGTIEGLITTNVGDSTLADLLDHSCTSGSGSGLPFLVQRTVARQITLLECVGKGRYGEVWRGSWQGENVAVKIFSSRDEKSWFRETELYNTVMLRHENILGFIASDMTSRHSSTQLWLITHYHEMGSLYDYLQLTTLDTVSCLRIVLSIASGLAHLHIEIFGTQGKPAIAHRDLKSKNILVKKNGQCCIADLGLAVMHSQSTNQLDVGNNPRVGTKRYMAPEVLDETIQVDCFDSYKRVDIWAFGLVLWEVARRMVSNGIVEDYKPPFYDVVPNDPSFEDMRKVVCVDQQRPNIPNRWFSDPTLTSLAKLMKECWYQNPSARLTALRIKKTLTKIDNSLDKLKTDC
Method: as §1

[1] = Pharmacokinetic profile, IV and PO administration; format: in vivo, female rats; parameters: AUC 0-inf: concentration or dose not given beside the values; settings: for half-life: read-out: t½ (converted)
hepcidin expression = assay: Liver hepcidin expression in mice after single oral dose, real-time RT-PCR; format: in vivo; settings: single oral dose 250 mg/kg, liver mRNA after six hours
Method: Hepcidin expression in the mice treated with compounds 4 and 12 was compared to hepcidin expression in mice treated with compound A. In this experiment, mice were treated orally with a single dose of test compound. After six hours, livers were removed from euthanized animals and RNA extracted. Hepcidin mRNA levels were determined by real-time RT-PCR as described above.

[2] = system: hepcidin expression of HEPG2 cells; assay: Baseline hepcidin expression in HEPG2 cells, real-time RT-PCR; format: cell-based; settings: 3 μM, 6 hours, HEPG2, normalized to β-actin
Method: Hepcidin expression of HEPG2 cells treated with exemplary compounds of the invention was tested. […] To observe the ability of the compounds to effect baseline hepcidin expression, HEPG2 (hepatocellular carcinoma) cells were treated with compound for 6 hours and then assayed for hepcidin expression by real-time RT-PCR (normalized to levels of β-actin). Hepcidin expression was lowered in a dose dependent manner. Hepcidin expression was inhibited by 90% at a 3 μM concentration of Compound 12. […] In contrast, Compound 7 treated cells produced a 50% decrease in the induction when treated at 0.3 μM.

[3] = system: hepcidin expression induced by BMP2 in HEPG2 cells; assay: BMP2-induced hepcidin expression in HEPG2 cells; format: cell-based; settings: 0.3 μM
[4] = PO, free base or salt form as labelled

T1 sequence (O60674 whole entry): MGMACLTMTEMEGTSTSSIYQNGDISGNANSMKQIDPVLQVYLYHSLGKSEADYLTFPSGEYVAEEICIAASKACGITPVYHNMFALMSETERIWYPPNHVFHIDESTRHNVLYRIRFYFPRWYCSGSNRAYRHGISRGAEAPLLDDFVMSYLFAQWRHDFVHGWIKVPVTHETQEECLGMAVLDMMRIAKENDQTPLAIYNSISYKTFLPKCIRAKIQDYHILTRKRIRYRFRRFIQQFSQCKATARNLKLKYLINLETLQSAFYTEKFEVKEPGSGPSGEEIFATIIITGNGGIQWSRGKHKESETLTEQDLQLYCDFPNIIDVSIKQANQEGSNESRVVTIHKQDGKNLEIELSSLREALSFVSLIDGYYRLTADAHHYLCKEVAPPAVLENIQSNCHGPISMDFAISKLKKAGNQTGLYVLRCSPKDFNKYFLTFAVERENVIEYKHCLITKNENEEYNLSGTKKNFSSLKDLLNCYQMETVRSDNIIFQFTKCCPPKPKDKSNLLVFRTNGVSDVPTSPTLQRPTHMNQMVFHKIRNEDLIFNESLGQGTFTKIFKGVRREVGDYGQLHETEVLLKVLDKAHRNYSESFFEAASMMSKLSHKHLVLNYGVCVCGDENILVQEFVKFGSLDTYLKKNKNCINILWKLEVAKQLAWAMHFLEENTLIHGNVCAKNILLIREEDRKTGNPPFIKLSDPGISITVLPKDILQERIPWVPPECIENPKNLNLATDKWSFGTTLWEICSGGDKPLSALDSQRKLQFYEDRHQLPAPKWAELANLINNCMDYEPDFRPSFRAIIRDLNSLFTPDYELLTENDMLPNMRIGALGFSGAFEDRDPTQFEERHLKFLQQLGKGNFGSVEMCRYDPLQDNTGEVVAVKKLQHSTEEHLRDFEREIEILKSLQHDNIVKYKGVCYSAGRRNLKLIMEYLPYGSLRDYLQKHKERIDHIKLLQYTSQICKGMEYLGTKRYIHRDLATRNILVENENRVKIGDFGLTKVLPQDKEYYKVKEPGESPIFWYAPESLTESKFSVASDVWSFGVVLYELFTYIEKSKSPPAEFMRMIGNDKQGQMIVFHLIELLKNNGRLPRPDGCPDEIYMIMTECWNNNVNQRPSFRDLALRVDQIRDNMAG

Compound: N#CCc1cc(F)ccc1Nc1ccnc(Nc2ccc(N3CCN(CCO)CC3)c(Cl)c2)n1 [Compound 22, 2-(2-(2-(3-chloro-4-(4-(2-hydroxyethyl)piperazin-1-yl)phenylamino)pyrimidin-4-ylamino)-5-fluorophenyl) acetonitrile]
- IC50 (JAK2 kinase): 10 to 1000 nM
- IC50 (ALK2): 10 to 1000 nM

Compound: COc1cnc(Nc2ccc(N3CCN(CCO)CC3)c(Cl)c2)nc1Nc1cccnc1-c1ccccn1 [Compound 13, 2-(4-(4-(4-(2,2′-bipyridin-3-ylamino)-5-methoxypyrimidin-2-ylamino)-2-chlorophenyl)piperazin-1-yl)ethanol]
- IC50 (JAK2 kinase): > 1000 nM
- IC50 (ALK2): > 1000 nM

Compound: Cc1cnc(Nc2ccc(N3CCN(C)CC3)c(F)c2)nc1Nc1cccc(CC#N)c1 [Compound 2, 2-(3-((2-((3-fluoro-4-(4-methylpiperazin-1-yl)phenyl)amino)-5-methylpyrimidin-4-yl)amino)phenyl)acetonitrile]
- IC50 (JAK2 kinase): > 1000 nM
- IC50 (ALK2): > 1000 nM

Compound: COc1cnc(Nc2ccc(N3CCN(CCO)CC3)c(Cl)c2)nc1Nc1cccc(C2(C#N)CC2)c1 [Compound 9, 1-(3-(2-(3-chloro-4-(4-(2-hydroxyethyl)piperazin-1-yl)phenylamino)-5-methoxypyrimidin-4-ylamino)phenyl)cyclopropanecarbonitrile]
- IC50 (JAK2 kinase): 10 to 1000 nM
- IC50 (ALK2): > 1000 nM

Compound: O=C(O)C(O)C(O)C(=O)O (stereo not drawn) [Tartaric]
- AUC 0-inf [1, 4]: 370.9 ng·h/mL
- Cmax [1, 4]: 18.5 ng/mL
- Tmax [1, 4]: 0.3 h

Compound: Cc1ccc(Nc2ccnc(Nc3ccc(N4CCN(CCO)CC4)c(Cl)c3)n2)c(-c2ccccn2)n1 [Compound 15, 2-(4-(2-chloro-4-(4-(6-methyl-2,2′-bipyridin-3-ylamino)pyrimidin-2-ylamino)phenyl)piperazin-1-yl)ethanol]
- IC50 (JAK2 kinase): > 1000 nM
- IC50 (ALK2): 10 to 1000 nM

Compound: Oxalate
- AUC 0-inf [1, 4]: 721.2 ng·h/mL
- Cmax [1, 4]: 81.9 ng/mL
- F [1, 4]: 17.3 % IV
- Tmax [1, 4]: 0.5 h
- t½ [1, 4]: 7.3 h

Compound: CC(=O)O [Acetate]
- AUC 0-inf [1, 4]: 1200.1 ng·h/mL
- Cmax [1, 4]: 176.8 ng/mL
- F [1, 4]: 24.7 % IV
- Tmax [1, 4]: 0.5 h
- t½ [1, 4]: 5.8 h

Compound: Cc1ccc(Nc2ccnc(Nc3ccc(N4CCN(CCO)CC4)c(Cl)c3)n2)c(CC#N)c1 [Compound 18, 2-(2-(2-(3-chloro-4-(4-(2-hydroxyethyl)piperazin-1-yl)phenylamino)pyrimidin-4-ylamino)-5-methylphenyl)acetonitrile]
- IC50 (JAK2 kinase): 10 to 1000 nM
- IC50 (ALK2): 10 to 1000 nM

Compound: COc1cc(Nc2nccc(Nc3ccc(C)nc3-c3ccccn3)n2)cc(OC)c1OC [Compound 17, N^4-(6-methyl-2,2′-bipyridin-3-yl)-N^2-(3,4,5-trimethoxyphenyl)pyrimidine-2,4-diamine]
- IC50 (JAK2 kinase): > 1000 nM
- IC50 (ALK2): 10 to 1000 nM

Compound: Maleate
- AUC 0-inf [1, 4]: 484.8 ng·h/mL
- Cmax [1, 4]: 34.2 ng/mL
- F [1, 4]: 12.1 % IV
- Tmax [1, 4]: 8.0 h
- t½ [1, 4]: 8.5 h

Compound: Citrate
- AUC 0-inf [1, 4]: 801.5 ng·h/mL
- Cmax [1, 4]: 93.4 ng/mL
- F [1, 4]: 22.4 % IV
- Tmax [1, 4]: 0.5 h
- t½ [1, 4]: 6.8 h

Compound: H2SO4 [Compound H2SO4]
- AUC 0-inf [1, 4]: 538.3 ng·h/mL
- Cmax [1, 4]: 53.8 ng/mL
- F [1, 4]: 17.8 % IV
- Tmax [1, 4]: 1.0 h
- t½ [1, 4]: 9.2 h

Compound: COc1cc(Nc2nccc(Nc3ccc(C)cc3CC#N)n2)ccc1N1CCN(C)CC1 [Compound 19, 2-(2-(2-(3-methoxy-4-(4-methylpiperazin-1-yl)phenylamino)pyrimidin-4-ylamino)-5-methylphenyl)acetonitrile]
- IC50 (JAK2 kinase): 10 to 1000 nM
- IC50 (ALK2): 10 to 1000 nM

The next lines start with results.

- IC50 (JAK2 kinase): < 10 nM
- IC50 (ALK2): 10 to 1000 nM
- F ([1]; IV): 100.0 % IV
- F [1, 4]: 15.4 % IV
- plasma concentration levels after 24 hours ([1]; female rats): remain high
- AUC 0-inf ([1]; female, rat, plasma, iv, read-out: AUC 0-inf): 1380 ng·h/mL
- Cmax ([1]; female, rat, plasma, iv, read-out: Cmax): 996 ng/mL
- Tmax ([1]; female, rat, plasma, iv, read-out: Tmax): 0 h
- half-life ([1]; female, rat, plasma, iv): 9.2 h
- AUC 0-inf ([1]; female, rat, plasma, PO, free base or salt form as labelled, read-out: AUC 0-inf): 852 ng·h/mL
- Cmax ([1]; female, rat, plasma, PO, free base or salt form as labelled, read-out: Cmax): 118 ng/mL
- Tmax ([1]; female, rat, plasma, PO, free base or salt form as labelled, read-out: Tmax): 2 h
- half-life ([1]; female, rat, plasma, PO, free base or salt form as labelled): 6.5 h
Compound: COc1cc(Nc2nccc(Nc3cccc(C4(C#N)CC4)c3)n2)ccc1N1CCN(C)CC1 [Compound 4, 1-(3-(2-(3-methoxy-4-(4-methylpiperazin-1-yl)phenylamino)pyrimidin-4-ylamino)phenyl)cyclopropanecarbonitrile]
- hepcidin expression in mice compared to compound A (hepcidin expression): inhibit hepcidin expression to a greater extent than compound A

- IC50 (JAK2 kinase): > 1000 nM
- IC50 (ALK2): > 1000 nM
Compound: CN1CCN(c2ccc(Nc3ncc(Cl)c(Nc4cccc(CC#N)c4)n3)cc2F)CC1 [Compound 1, 2-(3-((5-chloro-2((3-fluoro-4-(4-methylpiperazin-1-yl)phenyl)amino)pyrimidin-4-yl)amino)phenyl)acetonitrile]

- IC50 (JAK2 kinase): < 10 nM
- IC50 (ALK2): 10 to 1000 nM
Compound: COc1cc(Nc2nccc(Nc3ccc(C)c(CC#N)c3)n2)ccc1N1CCN(C)CC1 [Compound 21, 2-(5-(2-(3-methoxy-4-(4-methylpiperazin-1-yl)phenylamino)pyrimidin-4-ylamino)-2-methylphenyl)acetonitrile]

- IC50 (JAK2 kinase): > 1000 nM
- IC50 (ALK2): < 10 nM
Compound: COc1cc(Nc2nccc(Nc3cccnc3-c3ccccn3)n2)ccc1N1CCN(C)CC1 [Compound 11, N^4-(2,2′-bipyridin-3-yl)-N^2-(3-methoxy-4-(4-methylpiperazin-1-yl)phenyl)pyrimidine-2,4-diamine]

- IC50 (JAK2 kinase): < 10 nM
- IC50 (ALK2): > 1000 nM
Compound: COc1cc(Nc2nccc(Nc3cccc(C4(C#N)CC4)c3)n2)cc(OC)c1OC [Compound 5, 1-(3-(2-(3,4,5-trimethoxyphenylamino)pyrimidin-4-ylamino)phenyl)cyclopropanecarbonitrile]

- IC50 (JAK2 kinase): > 1000 nM
- IC50 (ALK2): 10 to 1000 nM
Compound: COc1cc(Nc2nccc(Nc3ccc(C)nc3-c3ccccn3)n2)ccc1N1CCN(C)CC1 [Compound 16, N^2-(3-methoxy-4-(4-methylpiperazin-1-yl)phenyl)-N^4-(6-methyl-2,2′-bipyridin-3-yl)pyrimidine-2,4-diamine]

- IC50 (JAK2 kinase): 10 to 1000 nM
- IC50 (ALK2): 10 to 1000 nM
Compound: OCCN1CCN(c2ccc(Nc3nccc(Nc4cccnc4-c4ccccn4)n3)cc2Cl)CC1 [Compound 10, 2-(4-(4-(4-(2,2′-bipyridin-3-ylamino)pyrimidin-2-ylamino)-2-chlorophenyl)piperazin-1-yl)ethanol]

- IC50 (JAK2 kinase): > 1000 nM
- IC50 (ALK2): < 10 nM
- plasma concentration levels after 24 hours ([1]; female rats): remained high
- bioavailability ([1]; rat, plasma, female rats, oral dose): 95%
Compound: COc1cc(Nc2nccc(Nc3cccnc3-c3ccccn3)n2)cc(OC)c1OC [Compound 12, N^4-(2,2′-bipyridin-3-yl)-N^2-(3,4,5-trimethoxyphenyl)pyrimidine-2,4-diamine]
- Hepcidin expression inhibited [2]: 90%

- IC50 (JAK2 kinase): < 10 nM
- IC50 (ALK2): 10 to 1000 nM
Compound: CN1CCN(c2ccc(Nc3nccc(Nc4cccc(C5(C#N)CC5)c4)n3)cc2F)CC1 [Compound 8, 1-(3-((2-((3-fluoro-4-(4-methylpiperazin-1-yl)phenyl)amino)pyrimidin-4-yl)amino)phenyl)cyclopropanecarbonitrile]

- IC50 (JAK2 kinase): > 1000 nM
- IC50 (ALK2): > 1000 nM
Compound: CN1CCN(c2ccc(Nc3ncc(C#N)c(Nc4cccc(CC#N)c4)n3)cc2F)CC1 [Compound 3, 4-((3-(cyanomethyl)phenyl)amino)-2((3-fluoro-4-(4-methylpiperazin-1-yl)phenyl)amino)pyrimidine-5-carbonitrile]

- IC50 (JAK2 kinase): 10 to 1000 nM
- IC50 (ALK2): > 1000 nM
Compound: COc1cc(Nc2ncc(OC)c(Nc3cccnc3-c3ccccn3)n2)ccc1N1CCN(C)CC1 [Compound 14, N^4-([2,2′-bipyridin]-3-yl)-5-methoxy-N^2-(3-methoxy-4-(4-methylpiperazin-1-yl)phenyl)pyrimidine-2,4-diamine]

- IC50 (JAK2 kinase): < 10 nM
- IC50 (ALK2): 10 to 1000 nM
Compound: N#CC1(c2cccc(Nc3ccnc(Nc4ccc(N5CCN(CCO)CC5)c(Cl)c4)n3)c2)CC1 [Compound 7, 1-(3-((2-((3-chloro-4-(4-(2-hydroxyethyl)piperazin-1-yl)phenyl)amino)pyrimidin-4-yl)amino)phenyl) cyclopropanecarbonitrile]
- decrease in the BMP2 induction of hepcidin [3]: 50%
